Patent US6919360B2, “Benzisothiazolyl-substituted aminomethyl chromanes for treating diseases of the central nervous system” (Bayer HealthCare AG, priority 2001, dated 2005)
Where a name gives a salt, the structure may show the parent alone.

How the values were obtained:
[1] = target: T1, 5-HT1A receptors (Rattus norvegicus, UniProt P19327); test: Affinity to the 5-HT1A receptor: [3H]-8-OH-DPAT binding in hippocampus membranes; details: displacement of [3H]-8-OH-DPAT, hippocampus membranes of rats; Ki calculated from IC50
T1 construct: 5-HT1A receptors in hippocampus membranes of rats; from tissue; host or cells: rat hippocampus membranes
T1 sequence (P19327 1-422): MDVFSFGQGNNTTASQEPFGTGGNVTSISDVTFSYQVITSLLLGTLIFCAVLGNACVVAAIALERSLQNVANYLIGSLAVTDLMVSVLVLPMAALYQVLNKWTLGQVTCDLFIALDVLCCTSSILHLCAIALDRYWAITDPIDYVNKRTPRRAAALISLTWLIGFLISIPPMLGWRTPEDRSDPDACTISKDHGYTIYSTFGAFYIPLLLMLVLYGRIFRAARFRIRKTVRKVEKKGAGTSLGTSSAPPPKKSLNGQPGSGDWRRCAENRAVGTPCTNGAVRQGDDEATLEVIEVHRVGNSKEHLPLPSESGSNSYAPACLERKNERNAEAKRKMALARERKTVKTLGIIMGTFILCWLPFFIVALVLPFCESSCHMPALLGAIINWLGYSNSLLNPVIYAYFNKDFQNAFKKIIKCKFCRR
Protocol: 1. Affinity to the 5-HT1A Receptor
(Dompert et al., Naunyn-Schmiedeberg's Arch. Pharmacol. 1985, 328, 467-470).
In this test, binding of [^3H]-8-OH-DPAT to 5-HT1A receptors in hippocampus membranes of rats is measured.
In the binding test, IC50 values are determined which state at which concentration of test substance 50% of bound radio ligand is displaced. Taking into account the dissociation constants and the concentration of radio ligand, this is used to calculate the inhibition constant Ki.

| melting point [°C] | Ki [1] [nM] | SMILES |
| --- | --- | --- |
| 220 to 222 |  | O=C1c2ccccc2S(=O)(=O)N1CCCCNC[C@H]1CCc2cc(O)ccc2O1 (as salt: hydrochloride) [Example 2, 2-[4-({[(2R)-6-Hydroxy-3,4-dihydro-2H-chromen-2-yl]methyl}amino)butyl]-1,2-benzisothiazol-3(2H)-one 1,1-dioxide hydrochloride] |
|  | 3.15 | COc1cc2c(cc1O)O[C@@H](CNCCCCN1C(=O)c3ccccc3S1(=O)=O)CC2 [Example 1, (R)-(−)-2-(4-{[(7-Hydroxy-6-methoxy-3,4-dihydro-2H-chromen-2-yl)methyl]-amino}butyl)-1,2-benzisothiazol-3(2H)-one 1,1-dioxide hydrochloride] |
|  | 1.93 | O=C1c2ccccc2S(=O)(=O)N1CCCCNC[C@H]1CCc2cc(O)ccc2O1 [Example 2, 2-[4-({[(2R)-6-Hydroxy-3,4-dihydro-2H-chromen-2-yl]methyl}amino)butyl]-1,2-benzisothiazol-3(2H)-one 1,1-dioxide hydrochloride] |
